Experiments:
Assay type in all cases: biochemical
fructokinase (LC500344) = biological target: T1, fructokinase (LC500344) (Hyaloperonospora arabidopsidis, UniProt A0A7G1GEU5); experiment: Dixon plot; coupled pyruvate kinase/lactate dehydrogenase NADH assay at […] nm; details: competitive with D-fructose (0.5-2.5 mM); 10-250 mM D-tagatose; 4 mM ATP, 8 mM MgCl2, pH 7.5, 25 °C; D-tagatose is also a substrate
T1 construct: coding region in pGEX5X-1, N-terminal GST tag kept (58 kDa with tag), expressed in E. coli SoluBL21, GSTrap purified; equivalent to Hpa812304 of isolate Emoy2
T1 sequence (A0A7G1GEU5 1-297): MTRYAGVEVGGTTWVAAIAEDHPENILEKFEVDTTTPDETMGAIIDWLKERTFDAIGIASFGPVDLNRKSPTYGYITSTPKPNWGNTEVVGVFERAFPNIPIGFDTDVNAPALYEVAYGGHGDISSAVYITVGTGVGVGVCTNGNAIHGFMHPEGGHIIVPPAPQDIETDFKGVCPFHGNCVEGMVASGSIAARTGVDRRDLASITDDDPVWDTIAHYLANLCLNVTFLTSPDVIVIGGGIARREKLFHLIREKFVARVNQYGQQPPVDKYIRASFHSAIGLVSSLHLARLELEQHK

[1] = biological target: T2, phosphomannose isomerase (LC500563) (Hyaloperonospora arabidopsidis, UniProt A0A7G1GEM8); experiment: HPLC of ABEE-labelled products; details: 2.5 mM substrate, 10 mM MgCl2, pH 7.4, 30 °C, 6 h; products D-glucose 6-phosphate and D-mannose 6-phosphate
T2 construct: coding region in pColdI, His tag kept (45 kDa), expressed in E. coli SHuffle Express, HisTrap purified; equivalent to Hpa802576 of isolate Emoy2
T2 sequence (A0A7G1GEM8 1-415): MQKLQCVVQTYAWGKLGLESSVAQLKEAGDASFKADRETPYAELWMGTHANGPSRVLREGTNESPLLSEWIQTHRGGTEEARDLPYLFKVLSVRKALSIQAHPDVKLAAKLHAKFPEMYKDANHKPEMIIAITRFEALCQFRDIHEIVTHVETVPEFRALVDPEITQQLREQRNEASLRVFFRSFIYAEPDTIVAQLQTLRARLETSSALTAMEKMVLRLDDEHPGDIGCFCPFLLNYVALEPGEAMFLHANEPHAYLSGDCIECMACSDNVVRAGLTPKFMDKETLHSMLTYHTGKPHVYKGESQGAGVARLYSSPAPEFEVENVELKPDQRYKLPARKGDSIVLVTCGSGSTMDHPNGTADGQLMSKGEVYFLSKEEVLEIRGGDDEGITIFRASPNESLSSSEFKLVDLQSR

[2] = biological target: T2, phosphomannose isomerase (LC500563); experiment: HPLC of ABEE-labelled products; D-mannose 6-phosphate formation; details: read-out: % inhibition at 37.5 mM
[3] = biological target: T2, phosphomannose isomerase (LC500563); experiment: HPLC of ABEE-labelled products; D-glucose 6-phosphate formation; details: read-out: % inhibition at 37.5 mM

How did the Ki (fructokinase (LC500344)) turn out when `OCC1(O)OC[C@@H](O)[C@H](O)[C@@H]1O` (stereo partly drawn) [D-tagatose] was run?
Its Ki is 70 ± 5.14 mM.

For `O=P(O)(O)OC[C@H]1OC(O)(CO)[C@@H](O)[C@@H]1O` (stereo partly drawn) [D-fructose 6-phosphate], which “HPLC of ABEE-labelled products” value [1] is on record?
Its value is “both D-glucose 6-phosphate and D-mannose 6-phosphate were detected after the addition of D-fructose 6-phosphate”.

How did the inhibition at 37500 µM [2] turn out when `O=P(O)(O)OC[C@H]1OC(O)(CO)[C@@H](O)[C@H]1O` (stereo partly drawn) [D-tagatose 6-phosphate] was run?
The inhibition at 37500 µM was 60.8%.

What about the inhibition at 37500 µM [3] of the same compound?
Its inhibition at 37500 µM is 38.2%.

Reference: article PMC7406649, “The rare sugar D-tagatose protects plants from downy mildews and is a safe fungicidal agrochemical” (Communications Biology, 2020)
